# Marks after values point to notes of the source that are not given here.
# Experiments:
# P-gp = target: T1, P-gp (Homo sapiens, UniProt P08183); test: Inhibition of Calcein-AM transport in MDCK-MDR1 cells; assay type: cell-based; settings: for EC50: Calcein-AM, MDCK-MDR1 cells, mean ± SEM of two experiments; for inhibition at 30 min, 10 µM: human, MDCK-MDR1 cells (overexpressing P-gp), probe Calcein-AM (2.5 µM), at 10 µM, read-out: P-gp maximum inhibition
# T1 construct: expressed in transfected cells; host or cells: MDCK-MDR1 (Madin-Darby Canine Kidney cells, gift of Prof. P. Borst, NKI-AVL)
# T1 sequence (P08183 whole entry): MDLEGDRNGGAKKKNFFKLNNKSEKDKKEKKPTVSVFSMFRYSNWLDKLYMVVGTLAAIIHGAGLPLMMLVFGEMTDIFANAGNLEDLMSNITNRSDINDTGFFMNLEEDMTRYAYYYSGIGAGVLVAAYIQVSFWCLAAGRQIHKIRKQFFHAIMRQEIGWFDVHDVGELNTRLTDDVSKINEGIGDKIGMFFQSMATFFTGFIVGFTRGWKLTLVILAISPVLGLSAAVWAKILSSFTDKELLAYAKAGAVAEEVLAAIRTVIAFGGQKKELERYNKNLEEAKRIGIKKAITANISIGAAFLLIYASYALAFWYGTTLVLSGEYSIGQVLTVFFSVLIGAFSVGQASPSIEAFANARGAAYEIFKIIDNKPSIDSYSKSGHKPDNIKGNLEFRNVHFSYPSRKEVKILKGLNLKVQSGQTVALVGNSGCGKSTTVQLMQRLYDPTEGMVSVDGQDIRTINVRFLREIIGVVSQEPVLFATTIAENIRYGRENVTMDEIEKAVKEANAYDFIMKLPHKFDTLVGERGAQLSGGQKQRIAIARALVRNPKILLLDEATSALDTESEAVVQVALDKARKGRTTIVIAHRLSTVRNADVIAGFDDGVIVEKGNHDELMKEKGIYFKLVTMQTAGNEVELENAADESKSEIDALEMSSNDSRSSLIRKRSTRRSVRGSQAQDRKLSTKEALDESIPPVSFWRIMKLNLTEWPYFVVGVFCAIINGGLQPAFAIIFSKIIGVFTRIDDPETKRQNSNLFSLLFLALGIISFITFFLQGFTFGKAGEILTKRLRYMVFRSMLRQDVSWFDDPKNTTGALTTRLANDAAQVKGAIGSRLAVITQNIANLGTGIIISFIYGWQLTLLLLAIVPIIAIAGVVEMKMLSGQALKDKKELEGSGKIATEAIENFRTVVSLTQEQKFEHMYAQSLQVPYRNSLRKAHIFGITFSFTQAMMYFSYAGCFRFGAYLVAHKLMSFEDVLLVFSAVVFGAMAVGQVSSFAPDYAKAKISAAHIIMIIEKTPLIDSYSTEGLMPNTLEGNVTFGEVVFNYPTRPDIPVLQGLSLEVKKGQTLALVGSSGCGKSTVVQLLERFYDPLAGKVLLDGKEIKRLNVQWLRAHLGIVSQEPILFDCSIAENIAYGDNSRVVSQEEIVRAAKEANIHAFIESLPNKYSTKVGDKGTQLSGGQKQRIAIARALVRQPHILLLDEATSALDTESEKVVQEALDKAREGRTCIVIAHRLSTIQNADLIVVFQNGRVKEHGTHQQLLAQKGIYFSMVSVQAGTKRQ
# Method in brief: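 Confluent MDCK-MDR1 monolayers preincubated 30 min at 37 °C with compound (1 nM-100 µM), then 2.5 µM Calcein-AM (final) 30 min. After ice-cold PBS washes, fluorescence read (ex 485/em 535 nm); EC50 from % fluorescence increase over untreated basal versus log dose.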
# [1] = Apparent permeability (Papp) determination (BA/AB) in Caco-2 cell monolayer; assay type: in vitro ADME; settings: human, Caco-2 monolayer
# Method in brief: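 Caco-2 monolayers cultured 21 days (TEER monitored, >1000 Ω optimal); compounds added at 100 µM in HBSS to the filter well, 120 min at 37 °C, then apical and basolateral sides sampled. Papp ratio BA/AB computed; ratio >2 taken as indicating P-gp substrate.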
# MRP1 = target: T2, MRP1 (Homo sapiens, UniProt P33527); test: Inhibition of Calcein-AM efflux in MDCK-MRP1 cells; assay type: cell-based; settings: for MRP1, percentage of the effect: at a concentration of 100 μM; for EC50: Calcein-AM, NA: not active
# T2 construct: expressed in transfected cells; host or cells: MDCK-MRP1 (Madin-Darby Canine Kidney cells, gift of Prof. P. Borst, NKI-AVL)
# T2 sequence (P33527 whole entry): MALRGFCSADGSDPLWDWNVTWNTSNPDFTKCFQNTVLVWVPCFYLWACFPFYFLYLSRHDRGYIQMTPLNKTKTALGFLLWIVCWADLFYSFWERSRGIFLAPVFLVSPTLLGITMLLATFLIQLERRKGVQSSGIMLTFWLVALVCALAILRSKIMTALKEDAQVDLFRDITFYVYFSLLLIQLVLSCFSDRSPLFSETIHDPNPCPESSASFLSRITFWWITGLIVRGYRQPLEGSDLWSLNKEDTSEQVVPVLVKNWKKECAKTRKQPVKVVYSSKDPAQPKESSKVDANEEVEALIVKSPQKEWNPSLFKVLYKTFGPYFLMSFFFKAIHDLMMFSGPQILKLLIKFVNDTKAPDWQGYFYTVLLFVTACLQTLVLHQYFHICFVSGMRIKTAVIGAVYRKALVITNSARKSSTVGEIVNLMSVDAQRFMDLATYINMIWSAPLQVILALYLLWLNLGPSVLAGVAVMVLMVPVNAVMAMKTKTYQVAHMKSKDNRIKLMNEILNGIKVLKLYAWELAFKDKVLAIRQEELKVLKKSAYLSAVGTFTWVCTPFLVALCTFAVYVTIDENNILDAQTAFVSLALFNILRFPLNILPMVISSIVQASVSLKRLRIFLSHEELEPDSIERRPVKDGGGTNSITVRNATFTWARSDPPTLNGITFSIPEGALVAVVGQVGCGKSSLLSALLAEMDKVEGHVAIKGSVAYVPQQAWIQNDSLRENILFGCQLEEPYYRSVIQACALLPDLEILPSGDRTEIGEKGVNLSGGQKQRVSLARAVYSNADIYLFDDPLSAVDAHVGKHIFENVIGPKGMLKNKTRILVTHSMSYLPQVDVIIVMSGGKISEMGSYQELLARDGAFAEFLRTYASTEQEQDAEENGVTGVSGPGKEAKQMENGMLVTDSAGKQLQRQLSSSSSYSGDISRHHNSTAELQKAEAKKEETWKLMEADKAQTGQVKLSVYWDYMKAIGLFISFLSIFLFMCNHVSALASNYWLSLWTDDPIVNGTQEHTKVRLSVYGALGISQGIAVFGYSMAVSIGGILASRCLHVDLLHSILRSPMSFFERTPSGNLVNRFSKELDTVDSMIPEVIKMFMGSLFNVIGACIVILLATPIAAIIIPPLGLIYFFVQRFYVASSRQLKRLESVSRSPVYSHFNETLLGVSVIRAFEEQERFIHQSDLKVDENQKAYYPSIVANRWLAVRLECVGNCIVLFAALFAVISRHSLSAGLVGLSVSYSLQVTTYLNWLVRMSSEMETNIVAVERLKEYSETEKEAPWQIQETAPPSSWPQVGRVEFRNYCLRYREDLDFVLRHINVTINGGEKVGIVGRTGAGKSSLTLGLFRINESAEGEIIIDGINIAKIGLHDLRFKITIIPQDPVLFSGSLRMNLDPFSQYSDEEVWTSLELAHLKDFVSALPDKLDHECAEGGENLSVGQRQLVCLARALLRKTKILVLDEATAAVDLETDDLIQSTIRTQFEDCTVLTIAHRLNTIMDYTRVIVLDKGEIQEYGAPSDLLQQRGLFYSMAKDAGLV
# Protocol: These experiments were carried out as previously described by Teodori et al. with minor modifications. Each cell line (30 000 cells per well) was seeded into black CulturePlate 96/wells plate with 100 µL medium and allowed to become confluent overnight. 100 µL of test compounds were solubilised in culture medium and added to monolayers, with final concentrations ranging from 1 nM to 100 µM. 96/Wells plate was incubated for 30 min in a humidified atmosphere 5% CO2 at 37 °C. Calcein-AM was added in 100 µL of Phosphate Buffered Saline (PBS) to yield a final concentration of 2.5 µM and plate was incubated for 30 min in a humidified atmosphere 5% CO2 at 37 °C. Each well was washed 3 times with ice cold PBS. Saline buffer was added to each well and the plate was read with Victor3 (PerkinElmer) at excitation and emission wavelengths of 485 and 535 nm, respectively. In these experimental conditions, Calcein cell accumulation in the absence and in the presence of tested compounds was evaluated and fluorescence basal level was estimated with untreated cells. In treated wells the increase of fluorescence with respect to basal level was measured. EC50 values were determined by fitting the fluorescence increase percentage versus log[dose].
# The interaction potency between the designed compounds and P-gp was evaluated by measuring the transport inhibition of the pro-fluorescent probe Calcein-AM, that is a P-gp substrate, in a cell line overexpressing P-gp (MDCK-MDR1)[47]. The P-gp interacting profile was further investigated with two other assays: the Apparent Permeability (Papp) determination (BA/AB) in Caco-2 cell monolayer[48]^,[49], and the ATP cell depletion in the MDCK-MDR1 cell line[50]. Taking into account the results of the combined tests, an interacting compound can be classified as substrate or inhibitor. Papp determination measures the ratio between two fluxes: from the basolateral to apical compartments (BA, representative of passive diffusion) and from the apical to basolateral compartments (AB, representative of active transport). […] In the same manner, if (BA/AB) >2, the compound should probably be classified as a substrate. […] The selectivity of ligands 1–26 was evaluated by detecting their activity towards the other ABC transporters MRP1 and BCRP, by measuring the inhibition of the efflux of Calcein-AM (i.e., also a MRP1 substrate) in cells overexpressing MRP1 (MDCK-MRP1 cells), and the inhibition of the efflux of the fluorescent probe Hoechst 33342 (i.e. a BCRP substrate) in cells overexpressing BCRP (MDCK-BCRP cells), respectively.
# HT29/DX cells = test: Co-administration assay with doxorubicin (MTT), HT29/DX cells; assay type: cell-based, human; settings: compound 10 µM + 10 µM doxorubicin
# Protocol: (§1) The co-administration assay with doxorubicin was performed in MDCK-MDR1, HT29, HT29/DX, A549 and A549/DX cells at 48 h. On day 1, 10,000 cells/well were seeded into 96-well plates in a volume of 100 µL of fresh medium. On day 2, the tested drug was added alone to the cells at different concentrations (ranging from 40 nM to 10 µM). On day 3, the medium was removed and the drug at the same concentrations was added alone and in co-administration with 10 µM doxorubicin to the cells. After the established incubation time with the tested drug, MTT (0.5 mg/mL) was added to each well, and after 3 − 4 h incubation at 37 °C, the supernatant was removed. The formazan crystals were solubilised using 100 µL of DMSO/EtOH (1:1), and the absorbance values at 570 and 630 nm were determined on the microplate reader HTX Synergy (Bio-Tek Instruments).
# A549/DX cells = test: Co-administration assay with doxorubicin (MTT), A549/DX cells; assay type: cell-based, human; settings: compound 10 µM + 10 µM doxorubicin
# Protocol: as §1
# MDCK-MDR1 cells = test: Co-administration assay with doxorubicin (MTT), MDCK-MDR1 cells; assay type: cell-based, canine; settings: compound 10 µM + 10 µM doxorubicin, MDCK-MDR1
# Protocol: as §1
# A549 cells = test: Co-administration assay with doxorubicin (MTT), A549 cells; assay type: cell-based, human; settings: compound 10 µM + 10 µM doxorubicin
# Protocol: as §1
# [2] = tested on: HT29, A549, HT29/DX and A549/DX cells; test: Preliminary cytotoxicity of compounds alone in cancer cell lines; assay type: cell-based, human; settings: all the tested concentrations, preliminary assays (data not shown)
# Protocol: as §1
# The efficacy of the compounds was next tested in cancer cell lines with various levels of P-gp, as the human adenocarcinoma colon cells (HT29) and non-small cell lung cancer cells (A549) displaying low amount of P-gp, and their resistant counterparts HT29/DX and A549/DX, with a high amount of P-gp[53]. In preliminary assays, we verified that 3 and 8 were not cytotoxic at all the tested concentration (data not shown).
# HT29 cells = test: Co-administration assay with doxorubicin (MTT), HT29 cells; assay type: cell-based, human; settings: compound 10 µM + 10 µM doxorubicin
# Protocol: as §1
EC50 (P-gp),"efflux ratio at 120 min, 100 µM [1]",Compound,further results
340 ± 70 nM,4.1,"COc1cc2c(cc1OC)CN(CCc1ccc(OC(=O)c3cccc(OC)c3OC)cc1)CC2 [Compound 18, 4–(2-(6,7-Dimethoxy-3,4-dihydroisoquinolin-2(1H)-yl)ethyl)phenyl 2,3-dimethoxybenzoate]",
40.5 ± 8 nM,7.4,"COc1ccc(C(=O)Nc2ccc(CCN3CCc4cc(OC)c(OC)cc4C3)cc2)c(OC)c1 [Compound 3, N-(4–(2-(6,7-dimethoxy-3,4-dihydroisoquinolin-2(1H)-yl)ethyl)phenyl)-2,4-dimethoxybenzamide]","MRP1, percentage of the effect (MRP1): 31%^d; reduction of cell viability, co-administration with doxorubicin (HT29/DX cells): 35%; inhibition at 30 min, 10 µM (P-gp): 90 to 95%; reduction of cell viability, co-administration with doxorubicin (A549/DX cells): 40%; cytotoxicity, co-administration with doxorubicin (MDCK-MDR1 cells): 77%; reduction of cell viability, co-administration with doxorubicin (A549 cells): 25%; cytotoxicity, compound alone [2]: not cytotoxic; reduction of cell viability, co-administration with doxorubicin (HT29 cells): 5%"
100 ± 20 nM,5.4,"COc1cc2c(cc1OC)CN(CCc1ccc(OC(=O)c3c(OC)c(OC)cc4ccccc34)cc1)CC2 [Compound 21, 4–(2-(6,7-Dimethoxy-3,4-dihydroisoquinolin-2(1H)-yl)ethyl)phenyl 2,3-dimethoxy-1-naphthoate]",
110 ± 20 nM,4.8,"COc1cc2c(cc1OC)CN(CCc1ccc(OC(=O)c3c(OC)ccc4ccccc34)cc1)CC2 [Compound 20, 4–(2-(6,7-Dimethoxy-3,4-dihydroisoquinolin-2(1H)-yl)ethyl)phenyl 2-methoxy-1-naphthoate]",
100 ± 20 nM,7.1,"COc1ccc(C(=O)Oc2ccc(CCN3CCc4cc(OC)c(OC)cc4C3)cc2)c(OC)c1 [Compound 16, 4–(2-(6,7-Dimethoxy-3,4-dihydroisoquinolin-2(1H)-yl)ethyl)phenyl 2,4-dimethoxybenzoate]",EC50 (MRP1): 87000 ± 17000 nM
730 ± 140 nM,5.4,"COc1cc2c(cc1OC)CN(CCc1ccc(OC(=O)c3ccccc3OC)cc1)CC2 [Compound 15, 4–(2-(6,7-Dimethoxy-3,4-dihydroisoquinolin-2(1H)-yl)ethyl)phenyl 2-methoxybenzoate]",
360 ± 69 nM,9,"COc1cc2c(cc1OC)CN(CCc1ccc(OC(=O)c3ccc(OC)c(OC)c3OC)cc1)CC2 [Compound 14, 4–(2-(6,7-Dimethoxy-3,4-dihydroisoquinolin-2(1H)-yl)ethyl)phenyl 2,3,4-trimethoxybenzoate]",EC50 (MRP1): 69700 ± 13900 nM
530 ± 100 nM,7,"COc1cc2c(cc1OC)CN(CCc1ccc(NC(=O)c3ccc(OC)c(OC)c3OC)cc1)CC2 [Compound 1, N-(4–(2-(6,7-dimethoxy-3,4-dihydroisoquinolin-2(1H)-yl)ethyl)phenyl)-2,3,4-trimethoxybenzamide]",
47.8 ± 9.3 nM,5.5,"COc1cc2c(cc1OC)CN(CCc1ccc(NC(=O)c3c(OC)c(OC)cc4ccccc34)cc1)CC2 [Compound 8, N-(4–(2-(6,7-dimethoxy-3,4-dihydroisoquinolin-2(1H)-yl)ethyl)phenyl)-2,3-dimethoxy-1-naphthamide]","MRP1, percentage of the effect (MRP1): 47%^d; reduction of cell viability, co-administration with doxorubicin (HT29/DX cells): 29%; inhibition at 30 min, 10 µM (P-gp): 90 to 95%; reduction of cell viability, co-administration with doxorubicin (A549/DX cells): 49%; cytotoxicity, co-administration with doxorubicin (MDCK-MDR1 cells): around 50%; reduction of cell viability, co-administration with doxorubicin (A549 cells): 25%; cytotoxicity, compound alone [2]: not cytotoxic; reduction of cell viability, co-administration with doxorubicin (HT29 cells): 10%"
840 ± 160 nM,5.1,"COc1cc2c(cc1OC)CN(CCc1ccc(OC(=O)c3cccc4ccccc34)cc1)CC2 [Compound 19, 4–(2-(6,7-Dimethoxy-3,4-dihydroisoquinolin-2(1H)-yl)ethyl)phenyl 1-naphthoate]",
260 ± 50 nM,5,"COc1cc2c(cc1OC)CN(CCc1ccc(NC(=O)c3cccc(OC)c3OC)cc1)CC2 [Compound 5, N-(4–(2-(6,7-dimethoxy-3,4-dihydroisoquinolin-2(1H)-yl)ethyl)phenyl)-2,3-dimethoxybenzamide]",

# Source: PMC7178819, “6,7-Dimethoxy-2-phenethyl-1,2,3,4-tetrahydroisoquinoline amides and corresponding ester isosteres as multidrug resistance reversers” (Journal of Enzyme Inhibition and Medicinal Chemistry, 2020)
